Experimental data from US20240018119A1, “CARBOXAMIDE DERIVATIVE AND PHARMACEUTICAL COMPOSITION COMPRISING SAME AS ACTIVE INGREDIENT FOR PREVENTING OR TREATING MENTAL ILLNESS” (DAEGU-GYEONGBUK MEDICAL INNOVATION FOUNDATION, priority 2020, published 2024).

Legend:
Format in all cases: cell-based
serotonin transporter = target: T1, serotonin transporter (Homo sapiens, UniProt P31645); assay: Serotonin reuptake inhibition in transporter-transfected HEK-293 cells ([3H]-5-HT); conditions: for Triple reuptake inhibition (Ratio %) SERT: compound 1 μM, [3H]-5-HT, relative to control without compound (100%), lower = more inhibition; for IC50: concentration at which Ratio % is 50%, 6 concentrations 1 nM to 1 μM, read-out: Triple reuptake inhibition (IC50, μM) SERT
T1 construct: expressed in transfected cells; host or cells: HEK-293
T1 sequence (P31645 whole entry): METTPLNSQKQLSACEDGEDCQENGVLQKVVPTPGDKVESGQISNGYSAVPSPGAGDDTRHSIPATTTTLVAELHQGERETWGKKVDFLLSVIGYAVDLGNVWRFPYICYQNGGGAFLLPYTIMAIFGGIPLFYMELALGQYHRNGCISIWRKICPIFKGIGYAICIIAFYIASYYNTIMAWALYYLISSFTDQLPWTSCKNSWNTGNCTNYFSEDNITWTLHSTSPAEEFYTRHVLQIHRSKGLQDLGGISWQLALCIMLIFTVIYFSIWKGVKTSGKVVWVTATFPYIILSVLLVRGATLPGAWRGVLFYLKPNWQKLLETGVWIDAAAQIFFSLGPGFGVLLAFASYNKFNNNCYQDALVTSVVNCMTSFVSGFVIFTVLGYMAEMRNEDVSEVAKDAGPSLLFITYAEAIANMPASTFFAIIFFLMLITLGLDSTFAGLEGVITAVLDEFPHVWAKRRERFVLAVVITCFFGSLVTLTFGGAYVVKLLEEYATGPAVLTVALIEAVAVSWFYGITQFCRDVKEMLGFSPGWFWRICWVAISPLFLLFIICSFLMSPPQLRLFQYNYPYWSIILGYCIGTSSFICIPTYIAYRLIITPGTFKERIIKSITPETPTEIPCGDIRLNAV
Experimental: (§1) To evaluate the reuptake inhibitory effect on dopamine, the dopamine transporter cDNA was transfected using the HEK-293 cell line, and then sub-seeded in a 24 well plate the next day. After removing the medium, each compound of the Examples or Comparative Examples diluted to 1 μM in uptake buffer was added to a concentration of 200 μl/well and cultured at 37° C. for 15 minutes. 100 μl of uptake buffer containing 20-30 nM [3H]-DA was added and cultured at 37° C. for 5 minutes. The reaction solution was quickly removed and washed three times with 1 ml ice-cold uptake buffer. After dissolving the resultant in 1% SDS (0.5 ml), the degree of binding of radioisotope-labeled dopamine to the transporter was measured.
(§2) For norepinephrine (NE) and serotonin (5-HT), the degree of binding of radioisotope-labeled norepinephrine or serotonin to the transporter was measured in the same manner as above, except that cells transfected with NE or 5-HT transporter cDNA were used and [3H]-NE or [3H]-5-HT was used as a substrate.
(§3) In addition, when evaluating the reuptake inhibitory effect on dopamine, norepinephrine, and serotonin, the same method was performed without treating each compound of the Examples or Comparative Examples as a control, the degree of binding of radioisotope-labeled dopamine, norepinephrine, and serotonin to the transporter was measured, and by using this as a standard (100%), the triple reuptake inhibitory effect was evaluated as a relative ratio (Ratio %). That is, in the control group, the binding of dopamine, norepinephrine, and serotonin to transporters is not inhibited, but when each compound of the Examples is treated and thus the binding is inhibited, the Patio % value decreases.
In addition, in the case of the compound of Comparative Example 1, IC50 was obtained by the same method as the Example Compounds.

[1] = target: T2, norepinephrine transporter (Homo sapiens, UniProt P23975); assay: Norepinephrine reuptake inhibition in transporter-transfected HEK-293 cells ([3H]-NE); conditions: for Triple reuptake inhibition (Ratio %) NET: compound 1 μM, [3H]-NE, relative to control without compound (100%), lower = more inhibition; for IC50: concentration at which Ratio % is 50%, 6 concentrations 1 nM to 1 μM, read-out: Triple reuptake inhibition (IC50, μM) NET
T2 construct: expressed in transfected cells; host or cells: HEK-293
T2 sequence (P23975 whole entry, species assumed): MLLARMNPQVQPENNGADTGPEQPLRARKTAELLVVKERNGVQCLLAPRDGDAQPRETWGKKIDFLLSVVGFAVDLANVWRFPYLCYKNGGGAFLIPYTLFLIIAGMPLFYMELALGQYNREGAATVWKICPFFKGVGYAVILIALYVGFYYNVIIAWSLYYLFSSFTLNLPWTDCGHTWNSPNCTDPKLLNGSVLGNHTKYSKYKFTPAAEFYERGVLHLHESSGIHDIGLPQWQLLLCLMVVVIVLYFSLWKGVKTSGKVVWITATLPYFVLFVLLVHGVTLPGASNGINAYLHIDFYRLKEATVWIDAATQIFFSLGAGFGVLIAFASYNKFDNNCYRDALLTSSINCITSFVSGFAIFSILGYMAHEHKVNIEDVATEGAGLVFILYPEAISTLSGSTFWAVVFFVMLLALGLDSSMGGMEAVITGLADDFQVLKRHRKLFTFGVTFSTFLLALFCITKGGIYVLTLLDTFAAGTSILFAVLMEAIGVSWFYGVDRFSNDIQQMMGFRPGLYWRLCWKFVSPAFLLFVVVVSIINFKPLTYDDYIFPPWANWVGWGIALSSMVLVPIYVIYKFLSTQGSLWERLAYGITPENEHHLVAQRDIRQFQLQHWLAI
Experimental: as §1, §2, §3
(§4) Meanwhile, the Patio % values were compared, and in the case of the compounds of Examples 6, 9, 10, 19, 20, 22, 24, 28, 30, 31, 32, 33, 35, 41, 42, 48, 49, 51, 55, 56, 59, 61, 63, 64, 65, 66, 74 and 76 with excellent reuptake inhibitory effects on dopamine, norepinephrine and serotonin, the concentration at which the Ratio % is 50% was calculated using a total of 6 concentrations (1 nM, 5 nM, 10 nM, 50 nM, 100 nM, and 1 μM) and expressed as IC50. In addition, in the case of the compound of Comparative Example 1, IC50 was obtained by the same method as the Example Compounds.

dopamine transporter = target: T3, dopamine transporter (Homo sapiens, UniProt Q01959); assay: Dopamine reuptake inhibition in transporter-transfected HEK-293 cells ([3H]-DA); conditions: for Triple reuptake inhibition (Ratio %) DAT: compound 1 μM, 20-30 nM [3H]-DA, relative to control without compound (100%), lower = more inhibition; for IC50: concentration at which Ratio % is 50%, 6 concentrations 1 nM to 1 μM, read-out: Triple reuptake inhibition (IC50, μM) DAT
T3 construct: expressed in transfected cells; host or cells: HEK-293
T3 sequence (Q01959 whole entry): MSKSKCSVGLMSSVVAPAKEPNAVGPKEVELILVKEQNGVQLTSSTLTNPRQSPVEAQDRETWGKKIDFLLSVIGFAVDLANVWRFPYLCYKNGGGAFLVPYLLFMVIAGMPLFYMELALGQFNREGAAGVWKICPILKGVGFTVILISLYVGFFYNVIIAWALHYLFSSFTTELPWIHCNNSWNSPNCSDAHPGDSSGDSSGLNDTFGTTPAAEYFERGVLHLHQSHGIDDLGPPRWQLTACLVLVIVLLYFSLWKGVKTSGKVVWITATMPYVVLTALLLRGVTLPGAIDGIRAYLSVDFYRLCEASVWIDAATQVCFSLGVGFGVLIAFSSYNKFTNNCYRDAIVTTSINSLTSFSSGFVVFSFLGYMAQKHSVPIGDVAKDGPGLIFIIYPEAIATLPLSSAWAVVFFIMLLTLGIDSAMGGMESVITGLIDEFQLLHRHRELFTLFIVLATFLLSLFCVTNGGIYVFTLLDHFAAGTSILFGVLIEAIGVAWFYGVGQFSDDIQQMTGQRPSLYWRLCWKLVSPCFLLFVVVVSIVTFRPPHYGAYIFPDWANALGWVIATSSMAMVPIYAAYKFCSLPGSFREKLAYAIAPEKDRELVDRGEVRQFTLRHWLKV
Experimental: as §1, §3, §4

| Structure (SMILES) | Triple reuptake inhibition (Ratio %) SERT (serotonin transporter) [%] | IC50 (serotonin transporter) [µM] | Triple reuptake inhibition (Ratio %) NET [1] [%] | IC50 [1] [µM] | Triple reuptake inhibition (Ratio %) DAT (dopamine transporter) [%] | IC50 (dopamine transporter) [µM] |
| --- | --- | --- | --- | --- | --- | --- |
| O=C(NCCN1CCC(Cc2ccccc2)CC1)c1cc2cc(F)ccc2[nH]1 [Example 49] | 62.50 | 1.47 | 26.73 | 0.561 | 24.67 | 0.138 |
| O=C(NCC(=O)N1CCC(Cc2ccccc2)CC1)c1cc2ccccc2[nH]1 [Example 50, N-(2-(4-benzylpiperidin-1-yl)-2-oxoethyl)-1H-indol-2-carboxamide] | 100.83 | – | 93.21 | – | 108.32 | – |
| O=C(NCCN1CCC(Cc2ccc(Cl)c(Cl)c2)CC1)c1cc2cc(F)ccc2[nH]1 [Example 51, N-(2-(4-(3,4-dichlorobenzyl)piperidin-1-yl)ethyl)-5-fluoro-1H-indol-2-carboxamide] | 27.71 | 0.331 | 83.07 | – | 41.61 | 0.636 |
| O=C(NCCn1ccc(-c2ccc(F)cn2)n1)c1cc2ccccc2[nH]1 [Example 52, N-(2-(3-(5-fluoropyridin-2-yl)-1H-pyrazol-1-yl)ethyl)-1H-indol-2-carboxamide] | 93.19 | – | 82.74 | – | 85.39 | – |
| O=C(NC1(CN2CCC(Cc3ccccc3)CC2)CC1)c1cc2ccccc2[nH]1 [Example 53, N-(1-((4-benzylpiperidin-1-yl)methyl)cyclopropyl)-1H-indol-2-carboxamide] | 108.82 | – | 69.01 | – | 86.48 | – |
| O=C(NCCNCc1ccc2ccccc2c1)c1cc2ccccc2[nH]1 [Example 54, N-(2-((naphthalen-2-ylmethyl)amino)ethyl)-1H-indol-2-carboxamide] | 84.69 | – | 92.95 | – | 79.32 | – |
| O=C(NCCN1CCC(Cc2ccccc2)CC1)c1nc2ccccc2s1 [Example 55, N-(2-(4-benzylpiperidin-1-yl)ethyl)benzo[d]thiazol-2-carboxamide] | 53.01 | 3.01 | 57.47 | 2.48 | 39.32 | 2.64 |
| O=C(NCCN1CCC(Cc2ccccc2)CC1)c1cc2cccnc2[nH]1 [Example 56, N-(2-(4-benzylpiperidin-1-yl)ethyl)-1H-pyrrolol[2,3-b]pyridin-2-carboxamide] | 76.79 | – | 81.84 | – | 37.06 | 1.48 |
| O=C(NCCN1CCC(Cc2ccccc2)CC1)C1Cc2ccccc2N1 (stereo not drawn) [Example 57, N-(2-(4-benzylpiperidin-1-yl)ethyl) indolin-2-carboxamide] | 77.95 | – | 124.77 | – | 60.52 | – |
| O=C(NCCN1CCC(Cc2ccccc2)CC1)[C@H]1Cc2ccccc2N1 [Example 58, (R)—N-(2-(4-benzylpiperidin-1-yl)ethyl)indolin-2-carboxamide] | 105.84 | – | 82.39 | – | 66.26 | – |
| COc1ccc2[nH]c(C(=O)NCCN3CCC(Cc4ccccc4)CC3)nc2c1 [Example 59, N-(2-(4-benzylpiperidin-1-yl)ethyl)-5-methoxy-1H-benzo[d]imidazol-2-carboxamide] | 45.80 | 0.198 | 43.43 | 0.257 | 17.60 | 0.198 |
| O=C(NCCN1CCC(Cc2ccccc2)CC1)c1nc2cc(F)ccc2s1 [Example 60, N-(2-(4-benzylpiperidin-1-yl)ethyl)-5-fluorobenzo(d)thiazol-2-carboxamide] | 53.40 | – | 50.81 | – | 68.95 | – |
| O=C(NCCN1CCC(Cc2ccccc2)CC1)c1nc2ccccc2[nH]1 [Example 61, N-(2-(4-benzylpiperidin-1-yl)ethyl)-1H-benzo[d]imidazol-2-carboxamide] | 62.21 | 2.28 | 73.75 | 3.17 | 32.78 | 0.97 |
| O=C(N[C@@H]1CC[C@@H](c2ccc(Cl)c(Cl)c2)c2ccccc21)c1cc2ccccc2[nH]1 [Example 62, N-((1R,4S)-4-(3,4-dichlorophenyl)-1,2,3,4-tetrahydronaphthalen-1-yl)-1H-indol-2-carboxamide] | 94.51 | – | 144.33 | – | 79.43 | – |
| O=C(NCCN1CCC(Cc2ccccc2)CC1)c1cc2cc(O)c(O)cc2[nH]1 [Example 63, N-(2-(4-benzylpiperidin-1-yl)ethyl)-5,6-dihydroxy-1H-indol-2-carboxamide] | 38.25 | 0.369 | 48.43 | 0.092 | 13.34 | 0.087 |
| O=C(NCCN1CCC(Cc2ccccc2)CC1)c1nc2cc(O)ccc2[nH]1 [Example 64, N-(2-(4-benzylpiperidin-1-yl)ethyl)-5-hydroxy-1H-benzo[d]imidazol-2-carboxamide] | 47.72 | 0.237 | 57.21 | 0.543 | 22.84 | 0.362 |
| O=C(NCCN1CCC(Cc2ccc(Cl)c(Cl)c2)CC1)c1cc2cc(O)c(O)cc2[nH]1 [Example 65, N-(2-(4-(3,4-dichlorobenzyl)piperidin-1-yl)ethyl)-5,6-dihydroxy-1H-indol-2-carboxamide] | 10.79 | 0.044 | 73.83 | 5.73 | 7.57 | 0.049 |
| CCCCOc1ccc2[nH]c(C(=O)NCCN3CCC(Cc4ccccc4)CC3)cc2c1 [Example 67, N-(2-(4-benzylpiperidin-1-yl)ethyl)-5-butoxy-1H-indol-2-carboxamide] | 53.46 | – | 92.60 | – | 56.05 | – |
| CN(CCNC(=O)c1cc2ccccc2[nH]1)Cc1ccc2ccccc2c1 [Example 68, N-(2-(methyl(napthalen-2-ylmethyl)amino)ethyl)-1H-indol-2-carboxamide] | 87.07 | – | 100.99 | – | 90.63 | – |
| O=C(NCCN1CCC(Cc2ccccc2)CC1)C1CC1 [Example 69, N-(2-(4-benzylpiperidin-1-yl)ethyl)cyclopropanecarboxamide] | 113.80 | – | 86.02 | – | 92.83 | – |
| CC1(C(=O)NCCN2CCC(Cc3ccccc3)CC2)CC1 [Example 70, N-(2-(4-benzylpiperidine-1-yl)ethyl)-1-methylcyclopropanecarboxamide] | 102.65 | – | 116.85 | – | 107.49 | – |
| O=C(NCCN1CCC(Cc2ccccc2)CC1)c1ccccn1 [Example 71, N-(2-(4-benzylpiperidin-1-yl)ethyl)picolinamide] | 67.98 | – | 105.84 | – | 117.41 | – |
